This passage reports relative viability results from the supplement of paper PMC10307832.

What all share (test): relative viability (nuclei count vs DMSO), 5 days (fraction); higher = more cells survive
Compound in the experiment “Masitinib + Bortezomib”: Cc1ccc(NC(=O)c2ccc(CN3CCN(C)CC3)cc2)cc1Nc1nc(-c2cccnc2)cs1 [Masitinib] + CC(C)C[C@H](NC(=O)[C@H](Cc1ccccc1)NC(=O)c1cnccn1)B(O)O [Bortezomib] (partner 0.002 µM)
Summed up: (§1)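 Dosing by pin tool came one day after lung cancer cell lines were seeded in 1536-well plates, using either one drug or a fixed anchor-drug dose plus five library-drug doses (not always all listed) in √10 steps. After 5 days, nuclei were counted on 4× images. Relative viability is treated-well nuclei count divided by vehicle-well nuclei count, and values are medians of duplicate plates.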

Compound in the experiment “Masitinib + Dasatinib”: Cc1ccc(NC(=O)c2ccc(CN3CCN(C)CC3)cc2)cc1Nc1nc(-c2cccnc2)cs1 [Masitinib] + Cc1nc(Nc2ncc(C(=O)Nc3c(C)cccc3Cl)s2)cc(N2CCN(CCO)CC2)n1 [Dasatinib] (partner 0.075 µM)
In short, it runs like this: as §1

Compound in experiment [1]: CC1=CC(=CC=C1)NC2=NC(=CS2)C3=CC=NC=C3 + Cc1cc(Nc2cc(N3CCN(C)CC3)nc(Sc3ccc(NC(=O)C4CC4)cc3)n2)n[nH]1 [Tozasertib] (partner 0.1 µM)
Summed up:
as §1

Compound in the experiment “Masitinib + Olaparib”: Cc1ccc(NC(=O)c2ccc(CN3CCN(C)CC3)cc2)cc1Nc1nc(-c2cccnc2)cs1 [Masitinib] + O=C(c1cc(Cc2n[nH]c(=O)c3ccccc23)ccc1F)N1CCN(C(=O)C2CC2)CC1 [Olaparib] (partner 8 µM)
Summed up:
as §1

In the case of UMC-11, the relative viability with Masitinib + Bortezomib (first compound 0.01 µM) was 0.793; with Masitinib + Bortezomib (first compound 0.03162 µM), 0.743; with Masitinib + Bortezomib (first compound 0.1 µM), 0.79; with Masitinib + Bortezomib (first compound 0.3162 µM) it was 1.03; in the experiment with Masitinib + Bortezomib (first compound 1 µM), 0.714; with Masitinib + Dasatinib (first compound 0.03162 µM), 0.35. Further, the relative viability amounted to 0.535 in the experiment with Masitinib + Dasatinib (first compound 0.1 µM); 0.556 with Masitinib + Dasatinib (first compound 0.3162 µM); 0.509 with Masitinib + Dasatinib (first compound 1 µM); 0.219 in experiment [1] (first compound 0.08 µM); 0.206 in experiment [1] (first compound 0.253 µM); 0.193 in experiment [1] (first compound 0.8 µM). The relative viability in experiment [1] (first compound 2.53 µM) came out at 0.185; in experiment [1] (first compound 8 µM), 0.224; with Masitinib + Olaparib (first compound 0.01 µM), 0.354; with Masitinib + Olaparib (first compound 0.03162 µM), 0.371; with Masitinib + Olaparib (first compound 0.1 µM) it was 0.372; with Masitinib + Olaparib (first compound 0.3162 µM), 0.376. For the same cell line, the relative viability in the experiment with Masitinib + Olaparib (first compound 1 µM) was 0.398.
